Data from PubChem BioAssay AID330 (DTP/NCI, 2004).
Several values for one entry are separate records, joined by “and”; a condition that tells them apart may be missing. Identical values can stand only once. Inconclusive results and toxic doses are left out. How the source made its calls: active means survival T/C of 150% or more; inactive means T/C below 125% in these data. Square brackets hold non-standard residues; d marks the D form. Peptide text beside a SMILES is read from it. ξ: configuration not given here. ξE = NC(CCC(=O)O)C(=O)O

Tested on: P388 leukemia ip, CD2F1 mice, survival T/C
Assay: NCI In Vivo Anticancer Drug Screen. Data for tumor model P388 Leukemia (intraperitoneal) in CD2F1 (CDF1) mice
Conditions: endpoint: median survival time, higher = longer survival
Method in brief: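 Mice carrying the transplanted tumor received test compound or vehicle. Survival was recorded in each group, and the value is the treated-group measurement divided by that of the vehicle-treated control group.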

[1] = dose: 25.0 mg/kg/injection, schedule: Q01DX009 (ip), vehicle: saline with Tween-80
[2] = dose: 50.0 mg/kg/injection, schedule: Q01DX009 (ip), vehicle: saline with Tween-80
[3] = dose: 50.0 mg/kg/injection, schedule: Q01DX009 (ip), vehicle: saline
[4] = dose: 100.0 mg/kg/injection, schedule: Q01DX009 (ip), vehicle: saline
[5] = dose: 200.0 mg/kg/injection, schedule: Q01DX009 (ip), vehicle: saline
[6] = dose: 25.0 mg/kg/injection, schedule: Q01DX009 (ip), vehicle: other
[7] = dose: 50.0 mg/kg/injection, schedule: Q01DX009 (ip), vehicle: other
[8] = dose: 100.0 mg/kg/injection, schedule: Q01DX009 (ip), vehicle: other
[9] = dose: 200.0 mg/kg/injection, schedule: Q01DX009 (ip), vehicle: other
[10] = dose: 100.0 mg/kg/injection, schedule: Q01DX009 (ip), vehicle: saline with Tween-80
[11] = dose: 200.0 mg/kg/injection, schedule: Q01DX009 (ip), vehicle: saline with Tween-80
[12] = dose: 50.0 mg/kg/injection, schedule: Q01DX005 (ip), vehicle: saline with Tween-80
[13] = dose: 100.0 mg/kg/injection, schedule: Q01DX005 (ip), vehicle: saline with Tween-80
[14] = dose: 100.0 mg/kg/injection, schedule: Q04DX003 (ip), vehicle: saline with Tween-80
[15] = dose: 200.0 mg/kg/injection, schedule: Q01DX005 (ip), vehicle: saline with Tween-80
[16] = dose: 200.0 mg/kg/injection, schedule: Q04DX003 (ip), vehicle: saline with Tween-80
[17] = dose: 400.0 mg/kg/injection, schedule: Q04DX003 (ip), vehicle: saline with Tween-80
[18] = dose: 50.0 mg/kg/injection, schedule: Q01DX009 (ip), vehicle: Klucel (hydroxypropylcellulose) (HPC)

Measured: T/C

CC1C(=O)C23CC1CCC2C12COC(=O)C1C(C)(C)C(O)CC2OC3=O (stereo unspecified)
inactive: dose: 50.0 mg/kg/injection, schedule: Q04DX002 (ip), vehicle: saline with Tween-80 113 % of control | dose: 100.0 mg/kg/injection, schedule: Q04DX002 (ip), vehicle: saline with Tween-80 93 % of control | dose: 200.0 mg/kg/injection, schedule: Q04DX002 (ip), vehicle: saline with Tween-80 112 % of control

Nc1ccc(Br)cc1C(=O)c1ccccc1
inactive: dose: 12.5 mg/kg/injection, schedule: Q01DX009 (ip), vehicle: saline with Tween-80 97 % of control | [1] 94 % of control | [2] 94 % of control | [3] 87 % of control | [4] 89 % of control | [5] 116 % of control

O=C(COc1ccccc1)OC(=O)COc1ccccc1
inactive: [6] 109 % of control | [7] 100 % of control | [8] 93 % of control | [9] 98 % of control

CC1=C(C)/C(=C/c2ccccn2)NC1=O
inactive: dose: 60.0 mg/kg/injection, schedule: Q01DX005 (ip), vehicle: Klucel (hydroxypropylcellulose) (HPC) 98 % of control | dose: 120.0 mg/kg/injection, schedule: Q01DX005 (ip), vehicle: Klucel (hydroxypropylcellulose) (HPC) 105 % of control | dose: 240.0 mg/kg/injection, schedule: Q01DX005 (ip), vehicle: Klucel (hydroxypropylcellulose) (HPC) 98 % of control

C=C1Cc2cc(OC)c(OC)cc2C(c2cccc(Cl)c2)=NN1C(C)=O
inactive: dose: 60.0 mg/kg/injection, schedule: Q01DX005 (ip), vehicle: saline with Tween-80 95 % of control | dose: 120.0 mg/kg/injection, schedule: Q01DX005 (ip), vehicle: saline with Tween-80 97 % of control | dose: 240.0 mg/kg/injection, schedule: Q01DX005 (ip), vehicle: saline with Tween-80 100 % of control

COc1cc([C@@H]2c3cc4c(cc3[C@H](OC(=O)CCC(=O)O)[C@H]3COC(=O)[C@H]23)OCO4)cc(OC)c1OC
inactive: dose: 6.25 mg/kg/injection, schedule: Q01DX005 (ip), vehicle: saline with Tween-80 106 % of control | dose: 12.5 mg/kg/injection, schedule: Q01DX005 (ip), vehicle: saline with Tween-80 122 % of control | dose: 25.0 mg/kg/injection, schedule: Q01DX005 (ip), vehicle: saline with Tween-80 113 % of control

COc1ccc(C(=O)C(CN(C)C)CN(C)C)c(OC)c1
inactive: dose: 7.5 mg/kg/injection, schedule: Q01DX005 (ip), vehicle: saline 121 % of control | dose: 15.0 mg/kg/injection, schedule: Q01DX005 (ip), vehicle: saline 108 % of control

COC1OC2COC(c3ccccc3)OC2C(OC(C)=O)C1OC(C)=O (stereo unspecified)
inactive: dose: 12.5 mg/kg/injection, schedule: Q01DX009 (ip), vehicle: other 98 % of control | [6] 99 % of control | [7] 100 % of control | [8] 95 % of control | [9] 100 % of control

CCOc1cc2c(cc1C(C)c1ccc(OCc3ccccc3)c(OC)c1)OCO2 (stereo unspecified)
inactive: dose: 50.0 mg/kg/injection, schedule: Q01DX005 (ip), vehicle: Klucel (hydroxypropylcellulose) (HPC) 97 % of control | dose: 100.0 mg/kg/injection, schedule: Q01DX005 (ip), vehicle: Klucel (hydroxypropylcellulose) (HPC) 97 % of control | dose: 200.0 mg/kg/injection, schedule: Q01DX005 (ip), vehicle: Klucel (hydroxypropylcellulose) (HPC) 92 % of control

CNC(=O)CCCCC(=O)NC
inactive: [2] 96 % of control | [10] 104 % of control | [11] 114 % of control | dose: 400.0 mg/kg/injection, schedule: Q01DX009 (ip), vehicle: saline with Tween-80 96 % of control

[O-][n+]1nn(CC(O)CCl)c2ccccc21 (stereo unspecified)
inactive: [12] 102 % of control | [13] 102 % of control | [14] 103 % of control | [15] 100 % of control | [16] 98 % of control | [17] 93 % of control

O=c1[nH]c(=O)n(C2CC(O)C(CO)O2)cc1O (stereo unspecified)
inactive: dose: 50.0 mg/kg/injection, schedule: Q04DX003 (ip), vehicle: saline with Tween-80 100 % of control | [14] 101 % of control | [16] 99 % of control | [17] 101 % of control

COCCOCCOCCOCCO
inactive: [12] 102 % of control | [13] 100 % of control | [15] 104 % of control

O=[N+]([O-])c1cccc(C(O)(C(F)(F)F)C(F)(F)F)c1
inactive: [1] 95 % of control | [2] 97 % of control | [10] 106 % of control | dose: 100.0 mg/kg/injection, schedule: Q04DX002 (ip), vehicle: suspension in saline 112 % of control | [11] 98 % of control

COSc1ccc([N+](=O)[O-])cc1
inactive: dose: 100.0 mg/kg/injection, schedule: Q04DX003 (ip), vehicle: Klucel (hydroxypropylcellulose) (HPC) 108 % of control | dose: 200.0 mg/kg/injection, schedule: Q04DX003 (ip), vehicle: Klucel (hydroxypropylcellulose) (HPC) 102 % of control | dose: 400.0 mg/kg/injection, schedule: Q04DX003 (ip), vehicle: Klucel (hydroxypropylcellulose) (HPC) 99 % of control

O=C1CC(=P(c2ccccc2)(c2ccccc2)c2ccccc2)C(=O)O1
inactive: dose: 50.0 mg/kg/injection, schedule: Q04DX003 (ip), vehicle: saline 102 % of control | dose: 100.0 mg/kg/injection, schedule: Q04DX003 (ip), vehicle: saline 100 % of control | dose: 200.0 mg/kg/injection, schedule: Q04DX003 (ip), vehicle: saline 109 % of control | dose: 400.0 mg/kg/injection, schedule: Q04DX003 (ip), vehicle: saline 106 % of control

CC(=O)OC1OC(CS[As](C2CCCCC2)C2CCCCC2)C(OC(C)=O)C(OC(C)=O)C1OC(C)=O (stereo unspecified)
inactive: dose: 12.5 mg/kg/injection, schedule: Q01DX009 (ip), vehicle: Klucel (hydroxypropylcellulose) (HPC) 104 % of control and 111 % of control | dose: 25.0 mg/kg/injection, schedule: Q01DX009 (ip), vehicle: Klucel (hydroxypropylcellulose) (HPC) 104 % of control and 120 % of control | [18] 98 % of control and 101 % of control

ClC1=C(Cl)C2(Cl)C3C(c4cc(Br)c(Br)cc4C4C3C3(Cl)C(Cl)=C(Cl)C4(Cl)C3(Cl)Cl)C1(Cl)C2(Cl)Cl (stereo unspecified)
inactive: [3] 101 % of control | [4] 106 % of control | [5] 102 % of control

CC(=O)Nc1ccc(NC(=O)Nc2c(Cl)cccc2Cl)cc1
inactive: [18] 100 % of control | dose: 100.0 mg/kg/injection, schedule: Q01DX009 (ip), vehicle: Klucel (hydroxypropylcellulose) (HPC) 98 % of control | dose: 200.0 mg/kg/injection, schedule: Q01DX009 (ip), vehicle: Klucel (hydroxypropylcellulose) (HPC) 91 % of control

CCN(CC)CCSc1nnc(N)s1
inactive: dose: 50.0 mg/kg/injection, schedule: Q01DX001 (ip), vehicle: saline 103 % of control | dose: 100.0 mg/kg/injection, schedule: Q01DX001 (ip), vehicle: saline 103 % of control | dose: 200.0 mg/kg/injection, schedule: Q01DX001 (ip), vehicle: saline 99 % of control

NCC(=O)NCC(=O)NC(CCC(=O)O)C(=O)O (stereo not drawn) (H-Gly-Gly-[ξE]-OH)
inactive: dose: 50.0 mg/kg/injection, schedule: Q01DX005 (ip), vehicle: saline 100 % of control | dose: 100.0 mg/kg/injection, schedule: Q01DX005 (ip), vehicle: saline 101 % of control | dose: 200.0 mg/kg/injection, schedule: Q01DX005 (ip), vehicle: saline 104 % of control
